Earlier results, collected in patent EP0535567A1, “Liposomes containing volatile inhalation anaesthetics, their preparation and their use” (B. Braun Melsungen AG, priority 1991, dated 1993).

Conditions: fraction of the anaesthetic that is metabolised

Which verstoffwechselt does the source give for `FC(F)OC(Cl)C(F)(F)F` (stereo not shown) [Isofluran, 1-Chlor-2,2,2-trifluorethyl(difluormethyl)ether] here?
Its verstoffwechselt is under 2%.
